The results in this text go back to article PMC4525288, “Structures of FolT in substrate-bound and substrate-released conformations reveal a gating mechanism for ECF transporters” (Nature Communications, 2015).

The target of test [1] is T1, EfFolT (Enterococcus faecalis, UniProt Q837A3).
T1 construct: gene EF_0940; full-length S component without ECF module; N-terminal His6 tag (pET28a, NdeI/XhoI), E. coli BL21(DE3), detergent-purified
T1 sequence (Q837A3 1-179): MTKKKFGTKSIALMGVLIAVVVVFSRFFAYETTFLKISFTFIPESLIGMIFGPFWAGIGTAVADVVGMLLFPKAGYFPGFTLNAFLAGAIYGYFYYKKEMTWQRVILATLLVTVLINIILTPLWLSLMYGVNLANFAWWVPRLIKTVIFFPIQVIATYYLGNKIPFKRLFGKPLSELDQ
Nature of the test: isothermal titration calorimetry; crystal structure […] A. In kind it is binding. To be noted: read-out: Dissociation constant/KD.

Test [2] has as its target T2, EfFolT (Enterococcus faecalis, UniProt Q837A3, Y129A).
T2 construct: gene EF_0940
Nature of the test: biochemical.

For test [3], the target named is T3, EfFolT (Enterococcus faecalis, UniProt Q837A3, K145A).
T3 construct: gene EF_0940
The experiment in a line: biochemical.

For test [4], the target named is T4, EfFolT (Enterococcus faecalis, UniProt Q837A3, N117A).
T4 construct: gene EF_0940
Nature of the test: biochemical.

Test [5] deals with T5, EfFolT (Enterococcus faecalis, UniProt Q837A3, F80W).
T5 construct: gene EF_0940
The experiment in a line: biochemical.

Test [6] concerns the target T6, EfFolT (Enterococcus faecalis, UniProt Q837A3, K36R).
T6 construct: gene EF_0940
Nature of the test: biochemical.

The target of test [7] is T7, EfFolT (Enterococcus faecalis, UniProt Q837A3, T81A).
T7 construct: gene EF_0940
Nature of the test: biochemical.

Test [8] has as its target T8, EfFolT (Enterococcus faecalis, UniProt Q837A3, K145T).
T8 construct: gene EF_0940
The experiment in a line: biochemical.

For test [9], the target named is T9, EfFolT (Enterococcus faecalis, UniProt Q837A3, K36A).
T9 construct: gene EF_0940
The experiment in a line: biochemical.

Test [10] deals with T10, EfFolT (Enterococcus faecalis, UniProt Q837A3, T121A).
T10 construct: gene EF_0940
The experiment in a line: biochemical.

Test [11] concerns the target T11, EfFolT (Enterococcus faecalis, UniProt Q837A3, R26A).
T11 construct: gene EF_0940
Nature of the test: biochemical.

With `Nc1nc2ncc(CNc3ccc(C(=O)N[C@@H](CCC(=O)O)C(=O)O)cc3)nc2c(=O)[nH]1` [folate], the Kd in test [1] stood at 29.8 ± 4.7 nM; in [2], 635 ± 33.6 nM; in test [3], 3300 ± 198 nM; in [4] it was 68.6 ± 6.4 nM; in test [5], 499 ± 25.8 nM; in test [6] it was 91.5 ± 7.5 nM. Further, the Kd in test [7] amounted to 813 ± 162 nM; in [8], 3690 nM; in test [9], 5400 nM; in test [10], 288 ± 21.1 nM; in test [11], 252 ± 22 nM.
